The target of series [1] is T1, adult human liver flavin-containing monooxygenase (form 3) (Homo sapiens, UniProt P31513, E158K).
T1 sequence (P31513 1-532 E158K): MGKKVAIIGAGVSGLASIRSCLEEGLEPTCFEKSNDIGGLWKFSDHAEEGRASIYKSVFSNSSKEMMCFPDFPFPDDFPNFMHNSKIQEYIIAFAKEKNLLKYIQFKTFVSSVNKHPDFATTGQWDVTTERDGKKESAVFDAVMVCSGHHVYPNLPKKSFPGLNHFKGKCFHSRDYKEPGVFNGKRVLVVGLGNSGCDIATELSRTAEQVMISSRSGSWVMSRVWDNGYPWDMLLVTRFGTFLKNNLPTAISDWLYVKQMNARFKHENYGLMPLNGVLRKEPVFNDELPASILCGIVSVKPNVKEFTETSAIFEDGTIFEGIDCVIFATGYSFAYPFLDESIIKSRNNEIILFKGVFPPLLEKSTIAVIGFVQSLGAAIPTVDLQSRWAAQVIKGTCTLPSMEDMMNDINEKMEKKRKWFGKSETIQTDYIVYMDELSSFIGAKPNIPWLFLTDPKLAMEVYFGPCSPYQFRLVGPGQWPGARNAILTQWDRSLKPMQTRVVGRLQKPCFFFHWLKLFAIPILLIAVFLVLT
Description: N- and S-oxygenation by cDNA-expressed HLFMO 3 (solubilized protein from E. coli transformed with pTrcHLFMO 3), HPLC. The following applies: for Vmax, Expressed HLFMO / Km: N- or S-oxide formation, for the 4-bromophenyl-1,3-oxathiolanes formation of the trans S-oxide; for Km: read-out: Km, Expressed HLFMO. As to the method: (§1) In all cases examined, product formation was directly determined by HPLC analysis of organic extracts.
Competent NM522 Escherichia coli cells were transformed with the pTrc HLFMO 3 plasmid. […] After inoculation with a fresh overnight culture of NM522 containing pTrcHLFMO 3, the culture was grown at 37° C. until Abs600 was approximately 0.5 absorbance units. Finally, IPTG (0.8 mM) was added to the culture to induce expression of protein and the culture was left to grow overnight at 37° C.
The bacterial pellet was resuspended in 5 volumes of 50 mM potassium phosphate buffer (pH 8.4) containing 1% Triton X-100, 0.1% L-, α-phosphatidylcholine (L-α-lecithin) from egg yolk, 500 μM PMSF, and 1 mM EDTA. The mixture was sonicated and then centrifuged to remove cellular debris. As a control, bacterial lysate extracts from IPTG-induced pTrc99A-transformed NM522 cells (i.e., pTrc99A without the HLFMO 3 cDNA insert) were prepared under the same conditions.
(§2) Human liver samples were obtained from the Department of Surgery (UCSF) and with a protocol from the Medical College of Wisconsin (S. Wrighton).
(§3) A typical incubation mixture (final volume 0.25 ml) contained hepatic microsomes (0.4 mg of protein) or bacterial lysate (2.3 mg of protein), NADP^+ (0.5 mM), glucose-6-phosphate (2.0 mM), glucose-6-phosphate dehydrogenase (1 IU), DETAPAC (0.8 mM) and potassium phosphate buffer (50 mM, pH 8.4). Reactions were initiated by the addition of substrate and terminated at designated times by the addition of three volumes of cold dichloromethane, mixed thoroughly and centrifuged to separate the aqueous and organic fractions. N- and S-oxide metabolic products in the resulting organic extracts were separated and quantified by HPLC. […] Thiobenzamide and thiobenzamide S-oxide were quantified with this same, HPLC system employing a mobile phase of methanol/acetonitrile/60% perchloric acid (20:80:0.016, v/v) which gave retention volumes of 2.7 and 7.0 ml, respectively. […] The major metabolites formed in the incubations were also subjected to mass spectral analysis after extraction of isolated HPLC fractions.
(§4) RPLC of the S-oxide diastereomers with a Chiracel OT chiral analytical column (25 cm×0.15 cm inner diameter, Daicel Chemical Co., New York, N.Y.) was accomplished with a Beckman system, Kratos UV detector (240 nm) and a Hewlett Packard Integrator. […] Quantification was accomplished by comparing integrated HPLC peak areas after taking into account the difference in the extinction coefficients at 240 nm. Likewise, the cis and trans S-oxide diasteromers of (+)- and (−)-2-methyl-1,-benzodithiole were separated with a Chiracel OT chiral analytical column.

For the next series, the target named is T2, lys158-HFMO3-MBP (Homo sapiens, UniProt P31513, E158K).
T2 sequence (P31513 2-532 E158K): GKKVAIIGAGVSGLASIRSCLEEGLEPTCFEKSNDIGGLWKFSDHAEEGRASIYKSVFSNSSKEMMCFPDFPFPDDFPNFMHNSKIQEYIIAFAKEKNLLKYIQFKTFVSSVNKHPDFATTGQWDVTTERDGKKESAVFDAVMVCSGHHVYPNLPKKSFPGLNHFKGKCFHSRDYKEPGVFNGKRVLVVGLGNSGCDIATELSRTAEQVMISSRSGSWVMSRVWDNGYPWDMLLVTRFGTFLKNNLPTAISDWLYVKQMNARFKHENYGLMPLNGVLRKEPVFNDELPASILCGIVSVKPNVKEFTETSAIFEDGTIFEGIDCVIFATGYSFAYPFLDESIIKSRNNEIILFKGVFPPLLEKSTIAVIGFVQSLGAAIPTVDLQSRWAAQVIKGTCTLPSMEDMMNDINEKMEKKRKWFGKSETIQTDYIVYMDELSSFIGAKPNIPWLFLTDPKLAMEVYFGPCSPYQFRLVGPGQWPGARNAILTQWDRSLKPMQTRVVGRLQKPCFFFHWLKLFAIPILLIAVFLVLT
Description: Substrate oxygenation by lys158-HFMO3-MBP fusion protein, HPLC. The conditions noted are these: human, 15 min, 200 µM, pH 9. As to the method:
(§5) For HFMO3-MBP assay, all HFMO3-MBP incubations were done as follows: Into a test tube was added DETAPAC (1.2 mM, final concentration for a 250 μl reaction) followed by the addition of 60 μl NADPH generating system (0.4 mM NADP, 0.4 mM glucose-6-phosphate, and 20 μl of a 50 units mI^−1 glucose-6-phosphate dehydrogenase). The tube was chilled on ice and buffer and enzyme were added as described below for individual experiments to give a volume of 240 μl. The incubation was initiated by the addition of 5-DTP (10 μl of 5 mM) and placed in a shaking water bath at 37° C. for 10 min (unless specified otherwise). The incubation was stopped by the addition of 1.0 ml of ice-cold CH2Cl2. Following the addition of sodium carbonate (approx. 20 mg), the culture tube was vortexed, centrifuged (2000×g, 10 min), and the organic layer was removed and transferred to a 1.5 ml microfuge tube. The organic solvent was evaporated under a stream of Ar(g) to dryness and the residue was taken up in MeOH (300 μl) for determination HPLC analysis.
(§6) Data was analyzed with a Hitachi D-2500 integrator.
(§7) MTS-oxygenation assays were carried out under the same buffer, temperature, time and volume conditions, as for the N-oxygenation assays. The reactions were initiated upon addition of 10 μl of a 5 mM solution of MTS. The reaction was quenched with the addition of 700 μl of 80% CH3CN:20% hexane then 20 mg NaCl(s) and vortexed vigorously for 10 sec. The quenched reactions were then centrifuged briefly to separate the phases. The organic layer, containing product and substrate, was removed and used directly for HPLC analysis.
(§8) All other instruments used were the same as above for the N-oxygenation reactions. Conditions for elution were 50% CH3CN/H2O (v:v) with a flow rate gradient as follows: 1.5 ml min^−1 from 0 to 4 min., 1.5-2.5 ml min^−1 from 4 to 5 min, 2.5 ml min^−1 from 5 to 15 min.
Trimethylamine is commonly ingested in foodstuffs or it is available in the diet of humans from choline and other sources. Trimethylamine (TMA) is exclusively eliminated in humans by metabolism to trimethylamine N-oxide (TMANO). […] Thus, urinary TMANO formation provides a simple, reliable and direct assay of FMO3 activity in adult humans. Analysis of TMA to TMANO ratios provides a direct means of phenotyping adult humans for FMO3 activity. Phenotyping FMO3 activity in humans would provide a simple means of evaluating the relationship between the presence of FMO3 and various disease conditions. […]

The target in a further series is T3, glu158-HFMO3-MBP (Homo sapiens, UniProt P31513).
T3 sequence (P31513 2-532): T2 sequence (P31513 2-532 E158K) with K157E
Description: Substrate oxygenation by glu158-HFMO3-MBP fusion protein, HPLC. The conditions noted are these: human, 15 min, 200 µM, pH 9. The procedure:
as §5, §6, §7, §8
Trimethylamine is commonly ingested in foodstuffs or it is available in the diet of humans from choline and other sources. Trimethylamine (TMA) is exclusively eliminated in humans by metabolism to trimethylamine N-oxide (TMANO). […]

The next series relates to Human Liver Microsomes. Description: in vitro. The procedure: as §1, §2, §3, §4

Positions count from the first letter of the chain named. Read-outs that look alike come from different tables or passages of the source.

As for 4-bromophenyl-1,3-oxathiolane, the “pH of maximum S-oxygenase activity” value in series [1] (in the presence of microsomes and expressed HLFMO 3) is recorded as around 8.5.

As to `CN(C)CCCCCCN1c2ccccc2Sc2ccc(C(F)(F)F)cc21` [Compound 6], in series [1] (human liver microsomes and solubilized protein from E. coli transformed with pTrcHLFMO 3), the “substrate activity for human liver microsomes and expressed HLFMO 3, in words” value (from here on “substrate activity”) is “better substrates”. Also, in series [1] (microsomal protein and expressed HLFMO 3 gave virtually identical pH-rate profiles), the “pH-optimum for tertiary amine N-oxygenation” value is on record as “approximately 10”. Also, in series [1] (microsomes and expressed HLFMO 3), the “midpoint of the pH-rate profile of N-oxygenation” value was around 9.5.

For the compound `CSc1ccc(C)cc1` [MTS, methyl p-tolyl sulfide], the results for the “relative activity towards the sulfide, MTS vs. 5-DTP activity” value at lys158-HFMO3-MBP and on glu158-HFMO3-MBP were 4.9 fold and 20 fold, respectively.

Turning to `CN(C)CCCN1c2ccccc2Sc2ccc(Cl)cc21` [Chlorpromazine, chlorpromazine], the “substrate activity” value in series [1] is “detectable”. Besides, the “N-oxide formation, Expressed HFLMO” value in series [1] (human, 0.1 mM, pH 8.4) is given as 10.2 ± 1.2 pmol/min/mg of protein. Further, in the series on Human Liver Microsomes (human, 0.1 mM, pH 8.4), the “N-oxide formation, Human Liver Microsomes” value was 58.9 ± 7.4 pmol/min/mg of protein and the “S-oxide formation, Human Liver Microsomes” value is recorded as 29.3 ± 3.7 pmol/min/mg of protein.

Usually Km stands for the substrate concentration at which the rate is half of its maximum. In the case of (+)-4-bromophenyl-1,3-oxathiolane, in series [1], the “cis S-oxide, % of S-oxide product, Expressed HLFMO” value amounted to 38.5%; the “substrate activity” value is listed as “excellent substrates”; the “trans S-oxide formation rate, Expressed HLFMO” value was 0.8 ± 0.2 nmol/min/mg of protein; the “trans S-oxide, % of S-oxide product, Expressed HLFMO” value is 61.4%. In addition, in series [1], the “Vmax, Expressed HLFMO” value is listed as 0.180 nmol/min/mg of protein and the Km turned out to be 142 µM. In the series with Human Liver Microsomes, the Km came out at 50 µM; the “Vmax, Human Liver Microsomes” value is given as 2.87 nmol/min/mg of protein; the “cis S-oxide formation rate, Human Liver Microsomes” value is “(5.3 ± 0.9) nmol/min/mg of protein”; the “cis S-oxide, % of S-oxide product, Human Liver Microsomes” value turned out to be 40.4%. Besides, in the series on Human Liver Microsomes, the “trans S-oxide formation rate, Human Liver Microsomes” value is 7.8 ± 1.7 nmol/min/mg of protein and the “trans S-oxide, % of S-oxide product, Human Liver Microsomes” value was found to be 59.5%.

Take `CC1Sc2ccccc2S1` [2-Methyl-1,3-Benzodithiole, 2-Methyl-1,3-benzodithiole]: in series [1] (human, 0.5 mM, pH 8.4), the “S-oxide product cis (+)-(1R,2S), % Diastereomer” value is 48.6%; the “S-oxide product cis (+)-(1R,2S), amount formed” value was 54 ± 22 pmol/min/mg of protein; the “S-oxide product cis (-)-(1S,2R), % Diastereomer” value was 19.8%; the “S-oxide product cis (-)-(1S,2R), amount formed” value is reported as 22 ± 2 pmol/min/mg of protein. Also, in series [1] (human, 0.5 mM, pH 8.4), the “S-oxide product trans (+)-(1R,2R), % Diastereomer” value is on record as 31.5% and the “S-oxide product trans (+)-(1R,2R), amount formed” value is 35 ± 27 pmol/min/mg of protein. In the series on Human Liver Microsomes (human, 0.5 mM, pH 8.4), the “S-oxide product cis (+)-(1R,2S), % Diastereomer” value is on record as 28.2%; the “S-oxide product cis (+)-(1R,2S), amount formed” value was 176 ± 34 pmol/min/mg of protein; the “S-oxide product cis (-)-(1S,2R), % Diastereomer” value is given as 12.3%; the “S-oxide product cis (-)-(1S,2R), amount formed” value is 77 ± 27 pmol/min/mg of protein. For the same compound, in the series with Human Liver Microsomes (human, 0.5 mM, pH 8.4), the “S-oxide product trans (+)-(1R,2R), % Diastereomer” value is reported as 59.5% and the “S-oxide product trans (+)-(1R,2R), amount formed” value was 372 ± 35 pmol/min/mg of protein.

With “(−)-4-bromophenyl-1,3-oxathiolane [(-)-4-Bromophenyl-1,3-oxathiolane]”, in series [1], the “substrate activity” value is “excellent substrates”; the “trans S-oxide formation rate, Expressed HLFMO” value is reported as 0.7 ± 0.1 nmol/min/mg of protein; the “trans S-oxide, % of S-oxide product, Expressed HLFMO” value is recorded as 100%; the “Vmax, Expressed HLFMO” value is reported as 2.94 nmol/min/mg of protein. In series [1], the Km came to 311 µM. Also, in the series on Human Liver Microsomes, the Km stood at 166 µM; the “Vmax, Human Liver Microsomes” value is 5.2 nmol/min/mg of protein; the “trans S-oxide formation rate, Human Liver Microsomes” value is given as 2.4 ± 0.9 nmol/min/mg of protein; the “trans S-oxide, % of S-oxide product, Human Liver Microsomes” value was 100%.
